Numbers after ± are expanded uncertainties.
Settings: Liquid, Ebulliometric method (Recirculating still)

FC(F)=C(F)Cl [1-chloro-1,2,2-trifluroethene]
vapor or sublimation pressure (267.67 K): 248 ± 1 kPa | vapor or sublimation pressure (272.54 K): 294.4 ± 1.2 kPa | vapor or sublimation pressure (277.45 K): 347.8 ± 1.4 kPa | vapor or sublimation pressure (282.62 K): 408.1 ± 1.6 kPa

C=COC(F)(F)F [perfluoromethyl vinyl ether]
vapor or sublimation pressure (267.67 K): 222.4 ± 0.9 kPa | vapor or sublimation pressure (272.54 K): 264.7 ± 1.1 kPa | vapor or sublimation pressure (277.45 K): 313.2 ± 1.3 kPa | vapor or sublimation pressure (282.62 K): 367.3 ± 1.5 kPa

— the NIST ThermoML archive (doi:10.1021/je7001144)
